Assay results reported in EP4810052A2, “HCRHR2 SELECTIVE POLYPEPTIDES” (Gubra A/S, priority 2023, dated 2026).
Like-named read-outs stand apart in the source and are kept apart here. Starred links: 1 amine or outer side, 2 acyl side, 3 side chain; linkers in the order of their positions; H or OH if unused. Non-standard residues stand in square brackets, D forms with d. Residues, ends and D or L forms follow the SMILES beside them. Groups on a side chain read outwards from the residue. *: point of attachment. C20 diacid = O=C(O)CCCCCCCCCCCCCCCCCCC(=O)*; Pro(cis-4-F) = O=C(O)[C@@H]1C[C@H](F)CN1; γGlu = O=C(O)[C@H](CCC(=O)[*:2])N[*:1]; NMeI = CC[C@H](C)[C@H](NC)C(=O)O; Nle = CCCC[C@H](N)C(=O)O; Ac5c = NC1(C(=O)O)CCCC1; AEEA = NCCOCCOCC(=O)O; Aib = CC(C)(N)C(=O)O

What was measured:
[1] = target: T1, hCRHR2 (Homo sapiens, UniProt Q13324); assay: HTRF cAMP assay, determination of hCRHR2 potency (peptide libraries 5 conc., purified peptides 11 conc.); assay type: cell-based
T1 sequence (Q13324 1-411): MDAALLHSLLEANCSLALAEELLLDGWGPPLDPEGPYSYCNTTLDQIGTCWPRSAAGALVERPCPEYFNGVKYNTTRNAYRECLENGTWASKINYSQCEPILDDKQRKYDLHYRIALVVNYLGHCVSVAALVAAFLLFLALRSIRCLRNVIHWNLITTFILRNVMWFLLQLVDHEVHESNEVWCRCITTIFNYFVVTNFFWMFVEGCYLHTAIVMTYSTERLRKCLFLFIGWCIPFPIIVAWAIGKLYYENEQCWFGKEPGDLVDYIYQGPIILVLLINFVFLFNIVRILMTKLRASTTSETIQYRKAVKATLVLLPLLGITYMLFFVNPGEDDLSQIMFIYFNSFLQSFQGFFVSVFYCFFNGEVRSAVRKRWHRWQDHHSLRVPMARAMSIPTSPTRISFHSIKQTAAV
Summary of the method: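 Read-out was HTRF competitive cAMP detection (d2-labelled cAMP, cryptate-labelled antibody) in suspended, freshly thawed CHO-K1 cells stably carrying human CRHR2.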

[2] = target: T2, hCRHR1 (Homo sapiens, UniProt P34998); assay: HTRF cAMP assay, determination of hCRHR1 potency (peptide libraries 5 conc., purified peptides 11 conc.); assay type: cell-based
T2 sequence (P34998 24-415): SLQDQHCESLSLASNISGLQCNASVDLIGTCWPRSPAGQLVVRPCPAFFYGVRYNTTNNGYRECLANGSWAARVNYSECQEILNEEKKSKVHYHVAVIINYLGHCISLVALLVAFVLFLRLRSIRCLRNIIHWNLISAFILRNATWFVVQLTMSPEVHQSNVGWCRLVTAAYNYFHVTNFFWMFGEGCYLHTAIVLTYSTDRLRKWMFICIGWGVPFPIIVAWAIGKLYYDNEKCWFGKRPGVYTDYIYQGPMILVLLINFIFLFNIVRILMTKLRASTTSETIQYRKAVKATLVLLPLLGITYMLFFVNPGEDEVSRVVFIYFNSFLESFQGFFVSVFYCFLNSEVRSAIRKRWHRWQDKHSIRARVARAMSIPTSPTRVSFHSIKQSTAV
Summary of the method: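 Cellular cAMP was read by time-resolved FRET between d2-labelled cAMP and cryptate anti-cAMP antibody. The cells were freshly thawed suspension CHO-K1 cells stably expressing human CRHR1.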

[3] = library peptides, matched molecular pairs L vs Nle in position X^38, read-out: Potency hCRHR2 pEC50 (converted)
[4] = library peptides, matched molecular pairs L vs Nle in position X^38, read-out: Potency hCRHR1 pEC50 (converted)
[5] = Table 3, matched molecular pairs X^38 L vs Nle, peptide library of Example 4, read-out: hCRHR2 pEC50 (converted)
[6] = Table 3, matched molecular pairs X^38 L vs Nle, peptide library of Example 4, read-out: hCRHR1 pEC50 (converted)

SMILES	EC50 [1, 3] [nM]	EC50 [2, 4] [nM]	EC50 [1, 5] [nM]	EC50 [2, 6] [nM]	other results
CCCC[C@H](NC(=O)[C@@H](NC(=O)[C@H](CCC(=O)O)NC(=O)[C@H](C)NC(=O)[C@H](CC(N)=O)NC(=O)[C@@H](NC(=O)[C@H](CCCCNC(=O)COCCOCCNC(=O)COCCOCCNC(=O)CC[C@H](NC(=O)CC[C@H](NC(=O)CCCCCCCCCCCCCCCCCCC(=O)O)C(=O)O)C(=O)O)NC(=O)[C@H](C)NC(=O)[C@H](CCC(N)=O)NC(=O)[C@H](CCC(=O)O)NC(=O)[C@H](CCCNC(=N)N)NC(=O)[C@H](C)NC(=O)[C@H](C)NC(=O)[C@H](CCCNC(=N)N)NC(=O)[C@H](C)NC(=O)[C@H](CCCNC(=N)N)NC(=O)[C@H](C)NC(=O)[C@H](CCC(N)=O)NC(=O)[C@H](CCC(=O)O)NC(=O)[C@H](CC(C)C)NC(=O)[C@H](CC(C)C)NC(=O)[C@@H](NC(=O)[C@H](CCC(N)=O)NC(=O)[C@H](CC(C)C)NC(=O)[C@H](CC(C)C)NC(=O)CNC(=O)[C@@H](NC(=O)[C@@H]1C[C@H](F)CN1C(=O)C1(NC(=O)[C@H](CC(=O)O)NC(=O)[C@H](CC(C)C)NC(=O)[C@H](CO)NC(=O)[C@H](CC(C)C)NC(=O)[C@@H](NC(=O)[C@@H](N)[C@@H](C)CC)C(C)C)CCCC1)[C@@H](C)CC)[C@@H](C)CC)[C@@H](C)O)[C@@H](C)CC)C(=O)N[C@@H](C)C(=O)N[C@@H](CCC(=O)O)C(=O)N[C@H](C(N)=O)C(C)C [compound 87] (H-IVLSLD[Ac5c][Pro(cis-4-F)]IGLLQILLEQARARAAREQAK([AEEA-AEEA-γGlu-γGlu-C20 diacid])TNAEI[Nle]AEV-NH2)	0.316	2.51	–	–	–
CCCC[C@H](NC(=O)[C@@H](NC(=O)[C@H](CCC(=O)O)NC(=O)[C@H](C)NC(=O)[C@H](CC(N)=O)NC(=O)[C@@H](NC(=O)[C@H](CCCCNC(=O)COCCOCCNC(=O)COCCOCCNC(=O)CC[C@H](NC(=O)CC[C@H](NC(=O)CCCCCCCCCCCCCCCCCCC(=O)O)C(=O)O)C(=O)O)NC(=O)[C@H](C)NC(=O)[C@H](CCC(N)=O)NC(=O)[C@H](CCC(=O)O)NC(=O)[C@H](CCCNC(=N)N)NC(=O)[C@H](C)NC(=O)[C@H](CO)NC(=O)[C@H](CCC(=O)O)NC(=O)[C@H](C)NC(=O)[C@H](CCCNC(=N)N)NC(=O)[C@H](C)NC(=O)[C@H](CCC(N)=O)NC(=O)[C@H](CCC(=O)O)NC(=O)[C@H](CC(C)C)NC(=O)[C@H](CC(C)C)NC(=O)[C@@H](NC(=O)[C@H](CCC(N)=O)NC(=O)[C@H](CC(C)C)NC(=O)[C@H](CC(C)C)NC(=O)CNC(=O)[C@@H](NC(=O)[C@@H]1CCCN1C(=O)[C@@H](NC(=O)[C@H](CC(=O)O)NC(=O)[C@H](CC(C)C)NC(=O)[C@H](CO)NC(=O)[C@H](CC(C)C)NC(=O)[C@@H](NC(=O)[C@@H](N)[C@@H](C)CC)C(C)C)C(C)C)[C@@H](C)CC)[C@@H](C)CC)[C@@H](C)O)[C@@H](C)CC)C(=O)N[C@@H](C)C(=O)N[C@@H](CCC(=O)O)C(=O)N[C@H](C(N)=O)C(C)C [SEQ ID NO: 42] (H-IVLSLDVPIGLLQILLEQARAESAREQAK([AEEA-AEEA-γGlu-γGlu-C20 diacid])TNAEI[Nle]AEV-NH2)	–	–	0.2	251	–
CCCC[C@H](NC(=O)[C@@H](NC(=O)[C@H](CCC(=O)O)NC(=O)[C@H](C)NC(=O)[C@H](CC(N)=O)NC(=O)C(C)(C)NC(=O)[C@H](CCCCNC(=O)COCCOCCNC(=O)COCCOCCNC(=O)CC[C@H](NC(=O)CC[C@H](NC(=O)CCCCCCCCCCCCCCCCCCC(=O)O)C(=O)O)C(=O)O)NC(=O)[C@H](C)NC(=O)[C@H](CCC(N)=O)NC(=O)[C@H](CCC(=O)O)NC(=O)[C@H](CCCNC(=N)N)NC(=O)[C@H](C)NC(=O)[C@H](C)NC(=O)[C@H](CCCNC(=N)N)NC(=O)[C@H](C)NC(=O)[C@H](CCCNC(=N)N)NC(=O)[C@H](C)NC(=O)[C@H](CCC(N)=O)NC(=O)[C@H](C)NC(=O)[C@H](CC(C)C)NC(=O)[C@H](CC(C)C)NC(=O)[C@@H](NC(=O)[C@H](CCC(N)=O)NC(=O)[C@H](CC(C)C)NC(=O)[C@H](CC(C)C)NC(=O)CNC(=O)[C@@H](NC(=O)[C@@H]1CCCN1C(=O)[C@@H](NC(=O)[C@H](CC(=O)O)NC(=O)[C@H](CC(C)C)NC(=O)[C@H](CO)NC(=O)[C@H](CC(C)C)NC(=O)[C@@H](NC(=O)[C@@H](NC)[C@@H](C)CC)C(C)C)C(C)C)[C@@H](C)CC)[C@@H](C)CC)[C@@H](C)CC)C(=O)N[C@@H](C)C(=O)N[C@@H](CCC(=O)O)C(=O)N[C@H](C(N)=O)C(C)C [compound 119] (H-[NMeI]VLSLDVPIGLLQILLAQARARAAREQAK([AEEA-AEEA-γGlu-γGlu-C20 diacid])[Aib]NAEI[Nle]AEV-NH2)	–	–	–	–	EC50 ([1]; Table 4, library peptides having X^38 = Nle, read-out: hCRHR2 pEC50 (converted)): 0.02 nM; EC50 ([2]; Table 4, library peptides having X^38 = Nle, read-out: hCRHR1 pEC50 (converted)): 1000 nM

Further lines, with some results ahead:

EC50 [1, 3] [nM]	EC50 [2, 4] [nM]	EC50 [1, 5] [nM]	EC50 [2, 6] [nM]	SMILES	other results
0.631	1580	–	–	CC[C@H](C)[C@H](N)C(=O)N[C@H](C(=O)N[C@@H](CC(C)C)C(=O)N[C@@H](CO)C(=O)N[C@@H](CC(C)C)C(=O)N[C@@H](CC(=O)O)C(=O)N[C@H](C(=O)N1CCC[C@H]1C(=O)N[C@H](C(=O)NCC(=O)N[C@@H](CC(C)C)C(=O)N[C@@H](CC(C)C)C(=O)N[C@@H](CCC(N)=O)C(=O)N[C@H](C(=O)N[C@@H](CC(C)C)C(=O)N[C@@H](CC(C)C)C(=O)N[C@@H](CCC(=O)O)C(=O)N[C@@H](CCC(N)=O)C(=O)N[C@@H](C)C(=O)N[C@@H](CCCNC(=N)N)C(=O)N[C@@H](C)C(=O)N[C@@H](CCCNC(=N)N)C(=O)N[C@@H](CCC(N)=O)C(=O)N[C@@H](C)C(=O)N[C@@H](CCCNC(=N)N)C(=O)N[C@@H](CCC(=O)O)C(=O)N[C@@H](CCC(N)=O)C(=O)N[C@@H](C)C(=O)N[C@@H](CCCCNC(=O)COCCOCCNC(=O)COCCOCCNC(=O)CC[C@H](NC(=O)CC[C@H](NC(=O)CCCCCCCCCCCCCCCCCCC(=O)O)C(=O)O)C(=O)O)C(=O)N[C@H](C(=O)N[C@@H](CC(N)=O)C(=O)N[C@@H](C)C(=O)N[C@@H](CCC(=O)O)C(=O)N[C@H](C(=O)N[C@@H](CC(C)C)C(=O)N[C@@H](C)C(=O)N[C@@H](CCC(=O)O)C(=O)N[C@H](C(N)=O)C(C)C)[C@@H](C)CC)[C@@H](C)O)[C@@H](C)CC)[C@@H](C)CC)C(C)C)C(C)C [compound 52] (H-IVLSLDVPIGLLQILLEQARARQAREQAK([AEEA-AEEA-γGlu-γGlu-C20 diacid])TNAEILAEV-NH2)	–
–	–	0.158	1260	CCCC[C@H](NC(=O)[C@@H](NC(=O)[C@H](CCC(=O)O)NC(=O)[C@H](C)NC(=O)[C@H](CC(N)=O)NC(=O)[C@@H](NC(=O)[C@H](CCCCNC(=O)COCCOCCNC(=O)COCCOCCNC(=O)CC[C@H](NC(=O)CC[C@H](NC(=O)CCCCCCCCCCCCCCCCCCC(=O)O)C(=O)O)C(=O)O)NC(=O)[C@H](C)NC(=O)[C@H](CCC(N)=O)NC(=O)[C@H](CCC(N)=O)NC(=O)[C@H](CCCNC(=N)N)NC(=O)[C@H](C)NC(=O)[C@H](C)NC(=O)[C@H](CCCNC(=N)N)NC(=O)[C@H](C)NC(=O)[C@H](CCCNC(=N)N)NC(=O)[C@H](C)NC(=O)[C@H](CCC(N)=O)NC(=O)[C@H](CCC(=O)O)NC(=O)[C@H](CC(C)C)NC(=O)[C@H](CC(C)C)NC(=O)[C@@H](NC(=O)[C@H](CCC(N)=O)NC(=O)[C@H](CC(C)C)NC(=O)[C@H](CC(C)C)NC(=O)CNC(=O)[C@@H](NC(=O)[C@@H]1CCCN1C(=O)[C@@H](NC(=O)[C@H](CC(=O)O)NC(=O)[C@H](CC(C)C)NC(=O)[C@H](CO)NC(=O)[C@H](CC(C)C)NC(=O)[C@@H](NC(=O)[C@@H](N)[C@@H](C)CC)C(C)C)C(C)C)[C@@H](C)CC)[C@@H](C)CC)[C@@H](C)O)[C@@H](C)CC)C(=O)N[C@@H](C)C(=O)N[C@@H](CCC(=O)O)C(=O)N[C@H](C(N)=O)[C@@H](C)CC [SEQ ID NO: 28] (H-IVLSLDVPIGLLQILLEQARARAARQQAK([AEEA-AEEA-γGlu-γGlu-C20 diacid])TNAEI[Nle]AEI-NH2)	–
